According to paper PMC8113020 (Chemistry of Heterocyclic Compounds, 2021):

System: Coxsackie B3 virus (strain Nancy)
Test: microbe, parasite or virus in culture
Type: cell-based
Settings: Enterovirus B, B3, Vero, 48 h, read-out: IC50 (50% inhibitory concentration)

NC(=O)c1ncn([C@@H]2O[C@H](CO)[C@@H](O)[C@H]2O)n1 [Ribavirin]
IC50: 56 ± 8 µM
